Experiments:
neutrophils = test: zebrafish tail fin wounding assay, neutrophil migration to wounded site; type: in vivo, zebrafish (Danio rerio); conditions: for migration of neutrophils upon tail fin wounding: Example 2, PPT 50 μM, F1, Rh1, Rg1 100 μM, Bec positive control, 3 dpf; for reduction in neutrophil migration in presence of Gba2 inhibitor MZ31: MZ31 (10 μM) co-treatment; for migration of neutrophils towards the wounded site: 4 h after wounding
Experimental: Zebrafish (Danio rerio) were maintained and handled according to the guidelines from the Zebrafish Model Organism Database (http://zfin.org) and in compliance with the directives of the local animal welfare committee of Leiden University. Zebrafish were exposed to a 14 h light and 10 h dark cycle to maintain circadian rhythmicity. Fertilization was performed by natural spawning at the beginning of the light period. […] The following zebrafish lines were used in this study: the double transgenic line Tg(mpx:GFP^i114/mpeg1:mCherry^umsF001), in which neutrophils and macrophages are fluorescently labeled (green and red, respectively), and the Tg(9xGCRE-HSV.UI23:EGFP)^ia20 reporter line, in which the gene encoding enhanced green fluorescent protein (EGFP) is driven by a GRE-containing promoter.
For the tail fin wounding experiments, 20 larvae at 2 or 3 days post-fertilization (dpf) were utilized for each experimental group. For wounding, larvae were anesthetized in egg water containing 0.02% buffered aminobenzoic acid ethyl ester (tricaine; Sigma-Aldrich). Larvae were placed on Petri dishes coated with 2% agarose under a Leica M165C stereomicroscope (Leica Microsystems, Wetzlar, Germany), and the tails were partly amputated using a 1-mm sapphire blade (World Precision Instruments, Sarasota, FL, USA). For quantification of leukocyte migration, larvae were fixed overnight in 4% paraformaldehyde (PFA) at 4° C. The next day, fixed larvae were washed with Phosphate Buffered Saline (PBS) containing 0.1% Tween 20, and stored at 4° C. until imaging.
The macrophages were detected based on their red (mCherry) fluorescence, and neutrophils based on their green (EGFP) fluorescence. To quantify the number of macrophages and neutrophils recruited to the wounded area, the cells in a defined area of the tail were determined by blinded manual counting.
Zebrafish (Danio rerio) were maintained and handled according to the guidelines from the Zebrafish Model Organism Database (http://zfin.org) and in compliance with the directives of the local animal welfare committee of Leiden University. Zebrafish were exposed to a 14 h light and 10 h dark cycle to maintain circadian rhythmicity. Fertilization was performed by natural spawning at the beginning of the light period. […] The following zebrafish lines were used in this study: AB/TL wild type, the transgenic lines Tg(mpx:GFP^i114/mpeg1:mCherry^umsF001)[14, 15], and Tg(9xGCRE-HSV.UI23:EGFPia^20)[16], and the mutant lines grs357[20].
For the tail fin wounding experiments, 2- or 3-days post-fertilization (dpf) larvae were anesthetized in egg water containing 0.02% buffered aminobenzoic acid ethyl ester (tricaine; Sigma-Aldrich). Larvae were placed in Petri dishes coated with 2% agarose under a Leica M165C stereomicroscope (Leica Microsystems, Wetzlar, Germany), and the tails were partly amputated using a 1-mm sapphire blade (World Precision Instruments, Sarasota, FL, USA).
In experiments in which the leukocyte migration was used as a readout, larvae were subjected to treatment with chemicals as indicated, starting at 2 h before the amputation (pretreatment), and treatment was continued for 4 h after the tail fin amputation (20 larvae per group, unless indicated otherwise). In some experiments, a 24 h treatment with MZ31 (10 μM) was started at 2 dpf, and these treatments were continued during the pretreatment and treatment with the other chemicals. At 4 h after amputation, the larvae were fixed in 4% paraformaldehyde (PFA) overnight at 4° C. The next day, fixed larvae were washed with Phosphate Buffered Saline (PBS) containing 0.1% Tween 20 and stored at 4° C. until imaging. […] The macrophages were detected based on red (mCherry) fluorescence and neutrophils on their green (EGFP) fluorescence. To quantify the number of macrophages and neutrophils recruited to the wounded area, the cells in a defined area of the tail were determined by blinded manual counting. […]

IL1B [1] = test: qPCR IL1B expression in TNF-α-treated HeLa cells; type: cell-based, human; conditions: for IL1B expression (TNF-α induced) / IL1B expression (TNF-α induced), short-term: 6 h; for IL1B expression (TNF-α induced): 0.01 μM beclomethasone, 20 μM Rg1 or combination
Experimental: (§1) HeLa (human cervical cancer) cells were cultured in Dulbecco's Modified Eagle's (DMEM) High Glucose (HG) medium without phenol red supplemented with 10% Fetal Calf Serum (FCS) and 10% Glutamax (Sigma-Aldrich). The cells were maintained at 37° C. and 5% CO2. At 24 h before adding the treatment, the medium was replaced by DMEM HG with 10% charcoal-inactivated serum and 10% Glutamax (Sigma-Aldrich). The cells were exposed to short- and long-term compound treatments. […] Subsequently, TNF-α (10 ng/ml) was added along with the compound treatments for 6 h (this last step was not added in the actinomycin-D and cycloheximide experiments).
(§2) To determine levels of gene expression in zebrafish larvae, 3 dpf larvae were used in both wounded and non-wounded conditions, and after short- and long-term treatments. Groups of 15 larvae were collected in TRIzol reagent (ThermoFisher) and total RNA was isolated using miRNeasy mini kit (Qiagen, Hilden, Germany). For experiments in HeLa cells, cells were seeded in 6 well plates and after treatment, the cells were removed from the wells using TRIzol reagent and mRNA was isolated using miRNeasy mini kit (Qiagen) according to the manufacturer's instructions. The RNA samples were DNAse-treated utilizing the DNA-free™ DNA Removal Kit (ThermoFisher Scientific). The cDNA synthesis was performed using the iScript cDNA synthesis kit (Bio-Rad Laboratories, Hercules, CA, USA) using 1 μg of RNA per sample. For qPCR, 10 μM of forward primer and 10 μM of reverse primer, 12.5 μl of IQ SYBR Green Supermix (Bio-Rad Laboratories), and 2 μl of cDNA were added to the qPCR reaction mixture. […] The qPCR reactions were performed on a MyiQ-single-color real-time PCR detection system (Bio-Rad Laboratories), with initial denaturation for 3 min, 95° C., and 40 cycles of 15 s at 95.5° C., 15 s at 60° C., and 30 s at 72° C. Cycle threshold values (Ct values, i.e. the cycle numbers at which a threshold value of the fluorescence intensity was reached) were determined for each sample. The gene expression level for each sample was normalized using the expression of ppial (peptidylprolyl isomerase Ab (cyclophilin A)) for zebrafish samples, and 18S rRNA for human cells. The fold change per sample (compared to the respective control group) was calculated using the […]Ct method.

il1b [2] = conditions: previously shown, ref [17]; cited from earlier work
NFKBIA = test: qPCR NFKBIA expression in HeLa cells (GR transactivation); type: cell-based, human; conditions: beclomethasone 1 μM, Rg1 50 μM or combination
Experimental: as §1, §2

MMP9 = test: qPCR MMP9 expression in HeLa cells; type: cell-based, human; conditions: beclomethasone 1 μM, Rg1 20 μM or combination; for MMP9 expression, long-term: 30 h
Experimental: as §1
To determine levels of gene expression in zebrafish larvae, 3 dpf larvae were used in both wounded and non-wounded conditions, and after short- and long-term treatments. Groups of 15 larvae were collected in TRIzol reagent (ThermoFisher) and total RNA was isolated using miRNeasy mini kit (Qiagen, Hilden, Germany). For experiments in HeLa cells, cells were seeded in 6 well plates and after treatment, the cells were removed from the wells using TRIzol reagent and mRNA was isolated using miRNeasy mini kit (Qiagen) according to the manufacturer's instructions. The RNA samples were DNAse-treated utilizing the DNA-free™ DNA Removal Kit (ThermoFisher Scientific). The cDNA synthesis was performed using the iScript cDNA synthesis kit (Bio-Rad Laboratories, Hercules, CA, USA) using 1 μg of RNA per sample. For qPCR, 10 μM of forward primer and 10 μM of reverse primer, 12.5 μl of IQ SYBR Green Supermix (Bio-Rad Laboratories), and 2 μl of cDNA were added to the qPCR reaction mixture. […] Cycle threshold values (Ct values, i.e. the cycle numbers at which a threshold value of the fluorescence intensity was reached) were determined for each sample. […] The fold change per sample (compared to the respective control group) was calculated using the […]Ct method.

[3] = beclomethasone 1 μM without or with Rg1 20 μM, TNF-α

| Structure (SMILES) | migration of neutrophils upon tail fin wounding (neutrophils) | reduction in neutrophil migration in presence of Gba2 inhibitor MZ31 (neutrophils) | IL1B expression (TNF-α induced) (IL1B [1]) | il1b expression after wounding (il1b [2]) | NFKBIA expression, long-term (NFKBIA) | NFKBIA expression, short-term (NFKBIA) | MMP9 expression, long-term (MMP9) | also measured |
| --- | --- | --- | --- | --- | --- | --- | --- | --- |
| CC(C)=CCC[C@](C)(O)[C@H]1CC[C@]2(C)[C@@H]1[C@H](O)C[C@@H]1[C@@]3(C)CC[C@H](O)C(C)(C)[C@@H]3[C@@H](O)C[C@]12C [PPT, Protopanaxatriol] | inhibited the migration of neutrophils | did not affect the reduction in neutrophil migration |  |  |  |  |  |  |
| CC(C)=CCC[C@](C)(O[C@@H]1O[C@H](CO)[C@@H](O)[C@H](O)[C@H]1O)[C@H]1CC[C@]2(C)[C@@H]1[C@H](O)C[C@@H]1[C@@]3(C)CC[C@H](O)C(C)(C)[C@@H]3[C@@H](O)C[C@]12C [F1] | inhibited the migration of neutrophils | did not affect the reduction in neutrophil migration |  |  |  |  |  |  |
| C[C@H]1C[C@H]2[C@@H]3CCC4=CC(=O)C=C[C@]4(C)[C@@]3(Cl)[C@@H](O)C[C@]2(C)[C@@]1(O)C(=O)CO [beclomethasone, reference compound] | inhibited the migration of neutrophils |  | slightly suppressed | transrepressed | reduced over time | strongly increased the expression of these genes after short-term treatment | the suppressive effects of beclomethasone were significantly reduced after long-term treatment | IL1B expression time course, short-term (IL1B [1]; beclomethasone 0.01 μM, TNF-α): hardly showed an effect; IL1B expression time course, long-term (IL1B [1]; [3]): did not show a significant suppressive effect on the expression of IL1B; IL1B expression time course, short-term (IL1B [1]; [3]): exhibited a strong suppressive effect on the IL1B expression; IL1B expression (TNF-α induced), short-term (IL1B [1]; beclomethasone 0.1 and 1 μM): strongly suppressed; IL1B expression (TNF-α induced), long-term (IL1B [1]; beclomethasone 0.1 and 1 μM, 30 h): a significant reduction in the suppressive effects of these high doses of beclomethasone was observed; migration of neutrophils towards the wounded site (neutrophils; beclomethasone 20 μM and 40 μM): did significantly reduce the neutrophil migration; migration of neutrophils towards the wounded site (neutrophils; beclomethasone lower than 10 μM): did not affect the migration of neutrophils towards the wounded site |
| CC(C)=CCC[C@](C)(O)[C@H]1CC[C@]2(C)[C@@H]1[C@H](O)C[C@@H]1[C@@]3(C)CC[C@H](O)C(C)(C)[C@@H]3[C@@H](O[C@@H]3O[C@H](CO)[C@@H](O)[C@H](O)[C@H]3O)C[C@]12C [Rh1] | inhibited the migration of neutrophils | did not affect the reduction in neutrophil migration |  |  |  |  |  |  |
| CC(C)=CCC[C@](C)(O[C@@H]1O[C@H](CO)[C@@H](O)[C@H](O)[C@H]1O)[C@H]1CC[C@]2(C)[C@@H]1[C@H](O)C[C@@H]1[C@@]3(C)CC[C@H](O)C(C)(C)[C@@H]3[C@@H](O[C@@H]3O[C@H](CO)[C@@H](O)[C@H](O)[C@H]3O)C[C@]12C [Rg1, (3β,6α, 12β)-3,12-Dihydroxydammar-24-ene-6,20-diyl bis-β-D-glucopyranoside] | inhibited the migration of neutrophils | this inhibitor abolished the effect of the polyglycosylated ginsenoside Rg1 | slightly suppressed | transrepressed | did not affect the expression of these genes | did not affect the expression of these genes | more strongly after long-term treatment | IL1B expression (TNF-α induced), short-term (IL1B [1]; Rg1 20, 100 and 500 μM): caused a decrease in IL1B expression after short-term treatment; IL1B expression (TNF-α induced), long-term vs short-term (IL1B [1]; Rg1 20, 100 and 500 μM, 30 h): not significantly different after long-term treatment; migration of neutrophils towards the wounded site (neutrophils; Rg1 40 μM and lower): did not alter the neutrophil migration; MMP9 expression, short-term (MMP9; 6 h): slightly suppressed |
